Test results from patent US10023836B2, “Medium for yeasts” (YAMAGUCHI UNIVERSITY, priority 2012, dated 2018).

How the values were obtained:
RAK2683 yeast strain = experiment: Investigation of nitrogen source used singly in MM culture medium instead of ammonium sulfate (Table 4); type: cell-based, Saccharomyces cerevisiae; conditions: Table 4 conditions
[1] = tested on: Saccharomyces cerevisiae RAK3599 strain; experiment: SynAA culture medium: elimination of single components and inorganic ion concentration; type: cell-based; conditions: one component of the inorganic ion mix eliminated from SynAA culture medium
Procedure: In a case where no special provisions are made, a procedure for a cultivation experiment using the culture medium to be investigated for proliferation was such that a yeast undergoing investigation was pre-cultured in a YPD liquid culture medium at 28° C. for 24 hours, after which the yeast was adjusted such that OD600=20. […] In addition, OD600 was measured every 15 minutes by a spectrophotometer (Cell density meter co8000, WPA). Hereafter, data is represented by graphs for a case using the automatic spectrophotometer; however, these graphs are primarily used to compare the slope of logarithmic growth phase proliferation curves for each culture medium, and because OD600 is measured without dilution, values where OD600=3 to 3.5 or more may be incorrect.
Culture mediums were prepared in which one component each of the components configuring the inorganic ion mix was eliminated from the SynAA culture medium, and OD600 was measured. […] Thereafter, an investigation specifically of inorganic ion concentration was conducted. […] An investigation was conducted using RAK3599 strain (hereafter, simply referred to as “RAK3599 strain”), which is a strain of Saccharomyces cerevisiae not having a particular nutritional requirement. Where no subsequent special provisions were made, proliferation was investigated by performing roller tube culture for an appropriate amount of time at 28° C. and measuring OD600.
MgSO4 concentration in the SynAA culture mediums was adjusted to 0%, 0.0001%, 0.001%, 0.01%, 0.1%, and 1%, respectively, and proliferation of the RAK3599 strain was investigated. […] Next, MgCl2 concentration in the SynAA culture mediums was adjusted to 0.001%, 0.01%, 0.1%, and 1%, respectively, and proliferation of the RAK3599 strain was investigated.
A culture medium was prepared in which one component each of the components configuring the vitamin mix was eliminated from the SynAA culture medium, with the SynAA culture medium as the control, and proliferation of the RAK3599 strain was investigated.

[2] = tested on: Saccharomyces cerevisiae RAK3599 strain; experiment: Glutamine, cysteine and amino acid groups in AYD′ / AYD culture medium (FIGS. 40, 41); type: cell-based
Procedure: For the AYD′ culture medium, an investigation was conducted into glutamine and cysteine concentrations using Saccharomyces cerevisiae RAK3599 strain.

RAK3599 strain = experiment: Investigation with AID and aY-AID culture medium (FIGS. 29 to 39); type: cell-based, Saccharomyces cerevisiae; conditions: for effect on proliferation when added at high concentrations: up to 1% or up to 0.2500%
Procedure: As shown in the following, an investigation was conducted into concentrations of each amino acid and a substitution potential of pantothenic acid for the amino acid in the AID culture medium. A suitable YPD culture medium was used as a control.
Next, the amino acids asparagine, isoleucine, phenylalanine, and valine were each adjusted to a culture medium additive concentration of […], 0.0312%, 0.0625%, 0.1250%, and 0.2500%, and OD600 was measured after 24 hours.
Isoleucine concentration in the aY-AID culture medium was adjusted to 0, 0.01 mg/mL, 0.1 mg/mL, 0.5 mg/mL, and 1 mg/mL, respectively, and proliferation of the RAK3599 strain was investigated.
Phenylalanine concentration in the aY-AID culture medium was adjusted to 0, 0.01, 0.1, 0.5, and 1 mg/mL, respectively, and proliferation of the RAK3599 strain was investigated.
Valine concentration in the aY-AID culture medium was adjusted to 0, 0.01, 0.1, 0.5, and 1 mg/mL, respectively, and proliferation of the RAK3599 strain was investigated.
Serine concentration in the AID culture medium was adjusted to 0, 0.01 mg/mL, 0.1 mg/mL, 0.5 mg/mL, and 1 mg/mL, respectively, and proliferation of the RAK3599 strain was investigated.
Threonine concentration in the AID culture medium was adjusted to 0, 0.01, 0.1, 0.5, and 1 mg/mL, respectively, and proliferation of the RAK3599 strain was investigated.
Asparagine concentration in the AID culture medium was adjusted to 0, 0.01, 0.1, 0.5, and 1 mg/mL, respectively, and proliferation of the RAK3599 strain was investigated.
An investigation was conducted into vitamins contained in the AID culture medium. […]

[3] = tested on: Saccharomyces cerevisiae histidine-requiring BY4714 (his3Δ1) strain; experiment: Histidine concentration in AKD culture medium (FIG. 17); type: cell-based
Procedure: Histidine concentration in the AKD culture mediums was adjusted to 0.001%, 0.01%, 0.1%, and 1%, respectively, and proliferation of a Saccharomyces cerevisiae histidine-requiring BY4714 (his3Δ1) strain was investigated. A maximum value was reached between 0.01% and […]. OD600 for 1/100 solutions after 42 hours was 0.07, 0.18, 0.18, and 0.15, respectively. Given the above-noted results, a preferred histidine concentration was understood to be around 0.01%.

[4] = tested on: Saccharomyces cerevisiae tryptophan-requiring BY4710 (trp1Δ) strain; experiment: Tryptophan concentration in AKD culture medium (FIG. 18); type: cell-based
Procedure: Tryptophan concentration in the AKD culture mediums was adjusted to 0.001%, 0.01%, 0.1%, and 1%, respectively, and proliferation of a Saccharomyces cerevisiae tryptophan-requiring BY4710 (trp1Δ) strain was investigated. OD600 for 1/100 solutions after 48 hours was 0.08, 0.15, 0.13, and 0.12, respectively. […] Given the above-noted results, a preferred tryptophan concentration was understood to be around 0.01%.

[5] = tested on: Saccharomyces cerevisiae adenine-requiring BY4725 (ade2Δ) strain; experiment: Adenine concentration in AKD culture medium (FIG. 20); type: cell-based
Procedure: A concentration of adenine contained in the amino acid mix of the AKD culture mediums for convenience was adjusted to 0%, 0.005%, 0.01%, 0.05%, 0.1%, and 0.5%, respectively, and proliferation of a Saccharomyces cerevisiae adenine-requiring BY4725 (ade2Δ) strain was investigated. OD600 for 1/20 solutions after 42 hours was 4, 15, 18, 18, 13 and 16, respectively. […] Given the above-noted results, a preferred adenine concentration was understood to be around 0.01%.

[6] = tested on: Saccharomyces cerevisiae uracil-requiring BY4700 (ura3Δ) strain; experiment: Uracil concentration in AKD culture medium (FIG. 19); type: cell-based
Procedure: A concentration of uracil contained in the amino acid mix of the AKD culture mediums for convenience was adjusted to 0.001%, 0.005%, 0.05%, 0.1%, and 0.5%, respectively, and proliferation of a Saccharomyces cerevisiae uracil-requiring BY4700 (ura3Δ) strain was investigated. OD600 for 1/100 solutions after 42 hours was 0.10, 0.21, 0.21, 0.22 and 0.20, respectively. Proliferation was confirmed to be low at 0.001%, to increase at 0.005%. and to markedly increase at between 0.05% and 0.1%. Proliferation was confirmed to be somewhat inhibited at 0.5%. Given the above-noted results, a preferred uracil concentration was understood to be around 0.01%.

`N.N.O=S(=O)(O)O` [Ammonium sulfate] was tested, and the “proliferation when added singly as nitrogen source” value (“proliferation when added singly” for short) (RAK2683 yeast strain) was “proliferation was confirmed to be extremely poor” and the “proliferation when the component is not added” value [1] was “higher proliferation”.
For `N[C@@H](CS)C(=O)O` [Cysteine, L-Cysteine], the appropriate concentration ([2]; AYD′ culture medium) was “around 0.01 g/L” and the “effect on proliferation when added at high concentrations” value (from here on “effect on proliferation when added”) (RAK3599 strain; AID culture medium) was “proliferation was confirmed to be inhibited”.
For `N[C@@H](CCC(=O)[O-])C(=O)[O-].O.[Na+].[Na+]` [Glutamic acid, L-Glutamic acid sodium salt hydrate], the “proliferation when added singly” value (RAK2683 yeast strain) was “favorable proliferation”.
In the case of `NC(=O)CC[C@H](N)C(=O)O` [Glutamine, L-Glutamine], the appropriate concentration ([2]; AYD′ culture medium) is reported as 5 g/L, the growth ([2]; AYD′ culture medium, glutamine concentration set to 10 times the previous concentration) is reported as “growth was confirmed to be extremely improved” and the “effect on proliferation when added” value (RAK3599 strain; AID culture medium) is reported as “proliferation was confirmed to be inhibited”.
`NCC(=O)O` [Glycine] was tested, and the “proliferation when added singly” value (RAK2683 yeast strain) was “almost no proliferation” and the “effect on proliferation when added” value (RAK3599 strain; AID culture medium) was “proliferation was confirmed to be inhibited”.
`Cl.N[C@@H](Cc1c[nH]cn1)C(=O)O.O` [Histidine, L-Histidine hydrochloride hydrate] was tested, and the “proliferation when added singly” value (RAK2683 yeast strain) was “almost no proliferation”, the preferred concentration [3] was “around 0.01%” and the “OD600 for 1/100 solutions after 42 hours” value ([3]; histidine 0.001%) was 0.07. For the same compound, the “OD600 for 1/100 solutions after 42 hours” value ([3]; histidine 0.01%) was 0.18, the “OD600 for 1/100 solutions after 42 hours” value ([3]; histidine 0.1%) was 0.18 and the “OD600 for 1/100 solutions after 42 hours” value ([3]; histidine 1%) was 0.15.
With `Cl.NCCCC[C@H](N)C(=O)O` [Lysine, L-Lysine hydrochloride] the “proliferation when added singly” value (RAK2683 yeast strain) was “almost no proliferation”.
`CSCC[C@H](N)C(=O)O` [Methionine, L-Methionine] was tested, and the “proliferation when eliminated from the AYD culture medium” value ([2]; amino acid group or individual amino acid of the AY5 group eliminated) was “proliferation decreases” and the “effect on proliferation when added” value (RAK3599 strain; AID culture medium) was “proliferation was confirmed to be inhibited”.
With `O=C(O)[C@@H]1CCCN1` [Proline, L-Proline] the “proliferation when added singly” value (RAK2683 yeast strain) was “favorable proliferation”.
For `C[C@@H](O)[C@H](N)C(=O)O` [Threonine, L-Threonine], the “proliferation when added singly” value (RAK2683 yeast strain) was “almost no proliferation”, the “content at which proliferation particularly increased” value (RAK3599 strain; AID culture medium) was “around 0.5 mg/mL” and the “effect on proliferation when added” value (RAK3599 strain; AID culture medium) was “proliferation was confirmed to be inhibited”. For the same compound, the “preferred concentration / content” value (RAK3599 strain; AID or aY-AID culture medium) was “around 0.5 g/L”.
With `N[C@@H](Cc1c[nH]c2ccccc12)C(=O)O` [Tryptophan, L-Tryptophan] the “concentration at which proliferation was somewhat inhibited” value [4] was 0.1%, the preferred concentration [4] was “around 0.01%” and the “OD600 for 1/100 solutions after 48 hours” value ([4]; tryptophan 0.001%) was 0.08. For the same compound, the “OD600 for 1/100 solutions after 48 hours” value ([4]; tryptophan 0.01%) was 0.15, the “OD600 for 1/100 solutions after 48 hours” value ([4]; tryptophan 0.1%) was 0.13 and the “OD600 for 1/100 solutions after 48 hours” value ([4]; tryptophan 1%) was 0.12.
For `Nc1ncnc2nc[nH]c12` [adenine], the “concentration at which proliferation was slightly inhibited” value [5] was at least 0.1%, the preferred concentration [5] was “around 0.01%” and the “OD600 for 1/20 solutions after 42 hours” value ([5]; adenine 0%) was 4. The “OD600 for 1/20 solutions after 42 hours” value ([5]; adenine 0.005%) was 15, the “OD600 for 1/20 solutions after 42 hours” value ([5]; adenine 0.01%) was 18 and the “OD600 for 1/20 solutions after 42 hours” value ([5]; adenine 0.05%) was 18. The “OD600 for 1/20 solutions after 42 hours” value ([5]; adenine 0.1%) was 13 and the “OD600 for 1/20 solutions after 42 hours” value ([5]; adenine 0.5%) was 16.
With `O=c1cc[nH]c(=O)[nH]1` [uracil] the “concentration at which proliferation was somewhat inhibited” value [6] was 0.5%, the preferred concentration [6] was “around 0.01%” and the “OD600 for 1/100 solutions after 42 hours” value ([6]; uracil 0.001%) was 0.10. For the same compound, the “OD600 for 1/100 solutions after 42 hours” value ([6]; uracil 0.005%) was 0.21, the “OD600 for 1/100 solutions after 42 hours” value ([6]; uracil 0.05%) was 0.21 and the “OD600 for 1/100 solutions after 42 hours” value ([6]; uracil 0.1%) was 0.22. For the same compound, the “OD600 for 1/100 solutions after 42 hours” value ([6]; uracil 0.5%) was 0.20.
